In US12492188B2, “1H-benzo[D]imidazole derivatives as TLR9 inhibitors for the treatment of fibrosis” (BRISTOL-MYERS SQUIBB COMPANY, priority 2020, dated 2025) one finds IC50 data, which are given here for 11 compounds.

What all share (type): cell-based
The target in one assay is T1, human TLR9 (Homo sapiens, UniProt Q9NR96).
T1 construct: host or cells: HEK-Blue cells (HEK293-derived reporter line)
T1 sequence (Q9NR96 26-1032): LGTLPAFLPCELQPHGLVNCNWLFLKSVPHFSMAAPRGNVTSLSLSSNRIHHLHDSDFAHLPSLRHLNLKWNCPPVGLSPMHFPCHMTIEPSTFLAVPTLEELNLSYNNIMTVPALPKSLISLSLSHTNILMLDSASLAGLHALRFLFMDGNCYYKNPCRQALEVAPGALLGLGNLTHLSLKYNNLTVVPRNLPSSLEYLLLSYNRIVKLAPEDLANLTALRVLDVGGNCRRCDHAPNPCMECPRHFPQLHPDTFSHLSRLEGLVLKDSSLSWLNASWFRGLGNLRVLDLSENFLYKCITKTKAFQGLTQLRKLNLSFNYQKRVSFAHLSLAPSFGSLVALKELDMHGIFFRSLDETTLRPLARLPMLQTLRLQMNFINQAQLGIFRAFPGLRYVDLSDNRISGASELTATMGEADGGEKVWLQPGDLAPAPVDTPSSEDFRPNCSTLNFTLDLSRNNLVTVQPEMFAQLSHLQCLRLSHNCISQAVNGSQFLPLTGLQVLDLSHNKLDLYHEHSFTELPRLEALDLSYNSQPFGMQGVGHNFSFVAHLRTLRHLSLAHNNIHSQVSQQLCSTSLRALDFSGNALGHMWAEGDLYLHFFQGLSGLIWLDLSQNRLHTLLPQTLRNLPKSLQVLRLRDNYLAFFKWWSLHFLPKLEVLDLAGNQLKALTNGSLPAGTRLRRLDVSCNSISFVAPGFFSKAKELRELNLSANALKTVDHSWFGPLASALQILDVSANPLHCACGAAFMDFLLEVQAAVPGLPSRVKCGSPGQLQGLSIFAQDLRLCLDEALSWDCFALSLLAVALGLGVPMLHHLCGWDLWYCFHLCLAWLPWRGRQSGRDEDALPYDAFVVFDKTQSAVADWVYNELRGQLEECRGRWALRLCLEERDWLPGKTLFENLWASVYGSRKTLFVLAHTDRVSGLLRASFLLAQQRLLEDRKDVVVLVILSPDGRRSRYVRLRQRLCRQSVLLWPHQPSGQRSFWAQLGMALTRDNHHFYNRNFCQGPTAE
The experiment in a line: TLR9 inhibition reporter assay (HEK-Blue cells, secreted embryonic alkaline phosphatase reporter). The method, boiled down: (§1)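 Cells seeded at 15000 (TLR7), 20,000 (TLR8) or 25,000 (TLR9) per well; compound 0.05 nM–50 μM, 30 min RT pre-incubation. Agonists: gardiquimod 7.5 μM, R848 15.9 μM, ODN2006 5 nM respectively. 22 h, 37 °C; SEAP via HEK-Blue Detection; % inhibition vs agonist+DMSO and known-inhibitor wells.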
Background: A reporter such as luciferase makes a cellular process visible.

For a further assay, the target named is T2, human TLR7 (Homo sapiens, UniProt Q9NYK1).
T2 construct: host or cells: HEK-Blue cells (HEK293-derived reporter line)
T2 sequence (Q9NYK1 27-1049): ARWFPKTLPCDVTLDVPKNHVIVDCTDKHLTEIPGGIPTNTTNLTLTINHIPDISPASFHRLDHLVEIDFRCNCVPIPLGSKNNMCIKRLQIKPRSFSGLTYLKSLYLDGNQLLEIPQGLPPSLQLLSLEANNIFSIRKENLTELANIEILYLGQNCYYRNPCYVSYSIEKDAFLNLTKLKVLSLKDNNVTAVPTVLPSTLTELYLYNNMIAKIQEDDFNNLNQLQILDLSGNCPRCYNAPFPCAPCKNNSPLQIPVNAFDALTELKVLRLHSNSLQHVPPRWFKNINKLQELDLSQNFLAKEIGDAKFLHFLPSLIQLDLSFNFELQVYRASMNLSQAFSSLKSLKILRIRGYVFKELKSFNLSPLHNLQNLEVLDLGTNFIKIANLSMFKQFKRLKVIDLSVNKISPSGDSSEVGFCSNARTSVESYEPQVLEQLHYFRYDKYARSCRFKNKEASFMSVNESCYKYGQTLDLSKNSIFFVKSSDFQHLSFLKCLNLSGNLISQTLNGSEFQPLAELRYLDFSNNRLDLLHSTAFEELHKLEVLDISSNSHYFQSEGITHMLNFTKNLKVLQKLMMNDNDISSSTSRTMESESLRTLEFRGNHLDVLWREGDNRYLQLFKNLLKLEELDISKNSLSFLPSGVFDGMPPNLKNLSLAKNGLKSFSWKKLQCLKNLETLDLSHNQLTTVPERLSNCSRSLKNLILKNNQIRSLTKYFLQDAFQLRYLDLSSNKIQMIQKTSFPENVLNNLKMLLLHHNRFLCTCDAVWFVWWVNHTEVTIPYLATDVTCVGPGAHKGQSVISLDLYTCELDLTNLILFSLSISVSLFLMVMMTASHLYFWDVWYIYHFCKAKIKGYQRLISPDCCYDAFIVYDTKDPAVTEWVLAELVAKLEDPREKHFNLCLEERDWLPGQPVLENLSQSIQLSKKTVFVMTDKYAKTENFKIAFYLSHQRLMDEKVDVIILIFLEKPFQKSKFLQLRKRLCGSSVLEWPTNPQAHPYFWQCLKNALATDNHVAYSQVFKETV
As to the kind of experiment: TLR7 inhibition reporter assay (HEK-Blue cells, secreted embryonic alkaline phosphatase reporter). To be noted: HEK-Blue cells overexpressing human TLR7, stimulated with gardiquimod 7.5 μM; read-out: TLR 7 IC50. The method, boiled down:
as §1

For a further assay, the target named is T3, human TLR8 (Homo sapiens, UniProt Q9NR97).
T3 construct: host or cells: HEK-Blue cells (HEK293-derived reporter line)
T3 sequence (Q9NR97 27-1041): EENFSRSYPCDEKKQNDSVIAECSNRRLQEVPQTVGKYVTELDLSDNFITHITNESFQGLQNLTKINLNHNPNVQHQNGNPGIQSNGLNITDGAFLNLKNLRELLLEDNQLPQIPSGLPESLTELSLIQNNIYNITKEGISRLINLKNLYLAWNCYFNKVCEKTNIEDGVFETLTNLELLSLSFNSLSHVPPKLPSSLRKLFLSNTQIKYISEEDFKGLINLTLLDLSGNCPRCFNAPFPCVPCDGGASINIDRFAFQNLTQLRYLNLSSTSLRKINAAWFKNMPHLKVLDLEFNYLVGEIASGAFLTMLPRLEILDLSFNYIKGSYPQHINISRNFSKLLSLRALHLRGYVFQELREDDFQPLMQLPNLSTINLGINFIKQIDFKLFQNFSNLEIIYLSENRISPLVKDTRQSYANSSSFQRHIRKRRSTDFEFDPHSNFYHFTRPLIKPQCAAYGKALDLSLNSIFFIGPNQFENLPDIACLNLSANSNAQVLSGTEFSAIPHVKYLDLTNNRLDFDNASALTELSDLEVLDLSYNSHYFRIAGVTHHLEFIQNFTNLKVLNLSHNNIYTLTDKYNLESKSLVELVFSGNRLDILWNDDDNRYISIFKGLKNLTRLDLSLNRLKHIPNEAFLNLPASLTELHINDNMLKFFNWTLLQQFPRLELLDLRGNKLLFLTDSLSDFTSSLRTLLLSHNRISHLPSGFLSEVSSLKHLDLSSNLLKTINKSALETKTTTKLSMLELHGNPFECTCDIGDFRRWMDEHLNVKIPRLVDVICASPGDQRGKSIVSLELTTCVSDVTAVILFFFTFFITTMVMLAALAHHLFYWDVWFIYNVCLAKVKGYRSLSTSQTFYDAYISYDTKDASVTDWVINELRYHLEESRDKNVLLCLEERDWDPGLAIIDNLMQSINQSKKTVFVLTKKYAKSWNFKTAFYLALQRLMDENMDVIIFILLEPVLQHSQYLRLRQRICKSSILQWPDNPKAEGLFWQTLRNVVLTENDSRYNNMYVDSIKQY
As to the kind of experiment: TLR8 inhibition reporter assay (HEK-Blue cells, secreted embryonic alkaline phosphatase reporter). To be noted: HEK-Blue cells overexpressing human TLR8, stimulated with R848 15.9 μM; read-out: TLR 8 IC50. The method, boiled down: as §1

[1] abbreviates: HEK-Blue cells overexpressing human TLR9, stimulated with ODN2006 5 nM, read-out: TLR 9 IC50.
[2] abbreviates: HEK-Blue human TLR9 reporter cells.
The mark [3] stands for this setting: HEK-Blue cells overexpressing human TLR9, stimulated with ODN2006 5 nM, 22 hour incubation, reporter readout.

By IC50 is commonly meant the concentration that gives 50% inhibition.

Read-outs that look alike come from different tables or passages of the source. Some results are limits rather than exact numbers.

Regarding `CS(=O)(=O)c1ccc(-c2nc3c(F)cc(C4CCN(C5CC6CCC(C5)N6C5CCC5)CC4)cc3n2C2CC2)cc1` (single isomer, unassigned) [Example 326, 6-(1-(8-cyclobutyl-8-azabicyclo[3.2.1]octan-3-yl)piperidin-4-yl)-1-cyclopropyl-4-fluoro-2-(4-(methylsulfonyl)phenyl)-1H-benzo[d]imidazole], the IC50 on human TLR9 (setting [1]) is 23 nM; at human TLR9 (setting [2]) it was 23 nM; at human TLR7 it was 1300 nM; on human TLR8 it was > 50000 nM.

With `CS(=O)(=O)c1ccc(-c2nc3c(F)cc(C4CCN(C5CC6CCC(C5)N6C5CCC5)CC4)cc3n2C2CC2)cc1` (single isomer, unassigned) [Example 327, 6-(1-(8-cyclobutyl-8-azabicyclo[3.2.1]octan-3-yl)piperidin-4-yl)-1-cyclopropyl-4-fluoro-2-(4-(methylsulfonyl)phenyl)-1H-benzo[d]imidazole], the IC50 at human TLR9 (setting [1]) came to 111 nM; at human TLR9 (setting [2]) it was 110 nM; at human TLR7, 2000 nM; at human TLR8, 18400 nM.

`COc1cc(-c2nc3c(C)cc(C4CCN(C5CC6CCC(C5)N6C5CCC5)CC4)cc3n2C)cn2ncnc12` (single isomer, unassigned) [Example 355, 6-(6-(1-(8-cyclobutyl-8-azabicyclo[3.2.1]octan-3-yl)piperidin-4-yl)-1,4-dimethyl-1H-benzo[d]imidazol-2-yl)-8-methoxy-[1,2,4]triazolo[1,5-a]pyridine]: the IC50 was 11 nM at human TLR9 (setting [1]), 11 nM on human TLR9 (setting [2]), 200 nM on human TLR7 and 3100 nM on human TLR8.

`COc1ccc(-c2nc3ccc(C4CCN(C5CCN(C(C)C)CC5)CC4)cc3n2C)cc1OC` [Example 1, 2-(3,4-dimethoxyphenyl)-6-(1′-isopropyl-[1,4′-bipiperidin]-4-yl)-1-methyl-1H-benzo[d]imidazole]: the IC50 against human TLR9 (setting [3]) turned out to be 56 nM; at human TLR7, 5900 nM; on human TLR8, 1100 nM.

Regarding `COc1ccc(-c2nc3ccc(C4CCN(C5CCN(C(C)C)CC5)CC4)cc3[nH]2)cc1OC` [Example 2, 2-(3,4-dimethoxyphenyl)-6-(1′-isopropyl-[1,4′-bipiperidin]-4-yl)-1H-benzo[d]imidazole], the IC50 on human TLR9 (setting [3]) was 120 nM; at human TLR9 (setting [1]) it was 123 nM; at human TLR7, 16000 nM; at human TLR8, > 50000 nM.

For `COc1ccc(-c2nc3ccc(C4CCN(C5CCN(C(C)C)CC5)CC4)cc3n2C(C)C)cc1OC` [Example 3, 2-(3,4-dimethoxyphenyl)-1-isopropyl-6-(1′-isopropyl-[1,4′-bipiperidin]-4-yl)-1H-benzo[d]imidazole], the IC50 against human TLR9 (setting [3]) is 170 nM; at human TLR9 (setting [1]) it was 169 nM; on human TLR7, 280 nM; on human TLR8, > 50000 nM.

With `COc1ccc(-c2nc3ccc(C4CCN(C5CCN(C(C)C)CC5)CC4)cc3n2CC(F)F)cc1OC` [Example 4, 1-(2,2-difluoroethyl)-2-(3,4-dimethoxyphenyl)-6-(1′-isopropyl-[1,4′-bipiperidin]-4-yl)-1H-benzo[d]imidazole], the IC50 on human TLR9 (setting [3]) is 250 nM; at human TLR9 (setting [1]), 253 nM; on human TLR7, 4700 nM; at human TLR8, > 50000 nM.

With `COc1ccc(-c2nc3cc(C4CCN(C5CCN(C(C)C)CC5)CC4)ccc3n2C)cc1OC` [Example 5, 2-(3,4-dimethoxyphenyl)-5-(1′-isopropyl-[1,4′-bipiperidin]-4-yl)-1-methyl-1H-benzo[d]imidazole], the IC50 against human TLR9 (setting [3]) worked out at 250 nM; at human TLR7 it was 6800 nM; at human TLR8, 840 nM.

Take `COc1ccc(-c2nc3cc(C4CCN(C5CCN(C(C)C)CC5)CC4)ccc3n2C(C)C)cc1OC` [Example 6, 2-(3,4-dimethoxyphenyl)-1-isopropyl-5-(1′-isopropyl-[1,4′-bipiperidin]-4-yl)-1H-benzo[d]imidazole]: the IC50 was 190 nM at human TLR9 (setting [3]), 191 nM at human TLR9 (setting [1]), 2900 nM at human TLR7 and 29000 nM at human TLR8.

Consider `COc1ccc(-c2nc3cc(C4CCN(C5CCN(C(C)C)CC5)CC4)ccc3n2CC(F)F)cc1OC` [Example 7, 1-(2,2-difluoroethyl)-2-(3,4-dimethoxyphenyl)-5-(1′-isopropyl-[1,4′-bipiperidin]-4-yl)-1H-benzo[d]imidazole], for which the IC50 against human TLR9 (setting [3]) is 280 nM; on human TLR9 (setting [1]), 283 nM; on human TLR7, 5700 nM; on human TLR8 it was > 50000 nM.

With `COc1ccc(-c2nc3cc(C4CCN(C5CCN(C(C)C)CC5)CC4)c(C(F)(F)F)cc3[nH]2)cc1OC` [Example 10, 2-(3,4-dimethoxyphenyl)-5-(1′-isopropyl-[1,4′-bipiperidin]-4-yl)-6-(trifluoromethyl)-1H-benzo[d]imidazole], the IC50 on human TLR9 (setting [3]) was 240 nM; on human TLR9 (setting [1]), 244 nM; at human TLR7 it was > 50000 nM; on human TLR8, > 50000 nM.
